Experimental findings from ChEMBL document CHEMBL4483862, “Open-source discovery of chemical leads for next-generation chemoprotective antimalarials” (2018) are described below.

The subject of this experiment is Plasmodium berghei. The experiment in a line: Luciferase/luciferin-expressing antifolate-resistant parasites were used to infect a culture of HepG2 cells that were pre-incubated with compounds. Infected hepatocytes emit light due to the luciferase reaction. Assay results are presented as the percent inhibition of light emission compared to control. […]. It is filed as functional. Particulars: sporozoite; for IC90: read-out: LUCIFERASE INFECTION ASSAY - IC90.

[1] abbreviates: read-out: LUCIFERASE INFECTION ASSAY - IC50.

As for `O=C1CC(c2ccc(Cl)cc2)Cc2c1cnn2-c1ccc(Cl)cc1` (configuration not stated), the IC90 (usually the concentration needed for an effect of 90%) is more than 9.24 µM. Moreover, where the note is “HEPG2TOX_HILL_SLOPE 2.3, HEPG2TOX_R_SQUARED 0.887, PBLUC_HILL_SLOPE 1.56, PBLUC_R_SQUARED 0.715, read-out: LUCIFERASE INFECTION ASSAY - IC50”, the IC50 (usually the concentration that inhibits the measured activity by half) was determined as 2.9 µM.

Consider `CCN(CC)c1ccc(N=C2C=CC(=O)c3ccccc32)c(C)c1`, for which the IC90 came to 4.59 µM. Besides, the IC50 (FFLUC_HILL_SLOPE 15.8, FFLUC_R_SQUARED 0.584, HEPG2TOX_HILL_SLOPE 2.04, HEPG2TOX_R_SQUARED 0.961, PBLUC_HILL_SLOPE 2.09, PBLUC_R_SQUARED 0.781, read-out: LUCIFERASE INFECTION ASSAY - IC50) is 1.61 µM.

Consider `CCCc1ccc(-c2nc(NC(=O)C3CCCN(c4ncccn4)C3)sc2C)cc1` (configuration not stated), for which the IC90 is more than 10 µM. The IC50 (FFLUC_HILL_SLOPE 11.3, FFLUC_R_SQUARED 0.0894, PBLUC_HILL_SLOPE 12.7, PBLUC_R_SQUARED 0.313, read-out: LUCIFERASE INFECTION ASSAY - IC50) is 9.57 µM.

In the case of `Cc1cc(C2=NN/C(=N\C(C)(C)C)SC2)c(C)n1C(C)C`, the IC90 is more than 10 µM. Where the note is “PBLUC_HILL_SLOPE 15.1, PBLUC_R_SQUARED 0.242, read-out: LUCIFERASE INFECTION ASSAY - IC50”, the IC50 stood at 9.12 µM.

For `O=C(NCc1ccc(F)c(Cl)c1)Nc1csc([N+](=O)[O-])c1`, the IC90 was more than 10 µM. Moreover, the IC50 (PBLUC_HILL_SLOPE 9.52, PBLUC_R_SQUARED 0.452, read-out: LUCIFERASE INFECTION ASSAY - IC50) was determined as 8.04 µM.

As to `Cn1c(Nc2ccccc2)nc2cnc(-c3ccc4ccccc4c3)cc21`, the IC90 is more than 10 µM. For the same molecule, the IC50 (PBLUC_HILL_SLOPE 3.04, PBLUC_R_SQUARED 0.156, read-out: LUCIFERASE INFECTION ASSAY - IC50) worked out at 6.85 µM.

Consider `O=[N+]([O-])c1ccc(-c2[nH]nc(-c3ccccc3)c2-c2ccc3ccccc3n2)cc1`, for which the IC90 was 9.84 µM. The IC50 (FFLUC_HILL_SLOPE 2.78, FFLUC_R_SQUARED 0.0561, HEPG2TOX_HILL_SLOPE 6.28, HEPG2TOX_R_SQUARED 0.62, PBLUC_HILL_SLOPE 3.02, PBLUC_R_SQUARED 0.452, read-out: LUCIFERASE INFECTION ASSAY - IC50) is 4.75 µM.

As for `COc1ccc(-c2c(C)nn3c(NCc4ccccn4)cc(C)nc23)cc1OC`, the IC90 turned out to be 7.49 µM. Besides, the IC50 (HEPG2TOX_HILL_SLOPE 8.52, HEPG2TOX_R_SQUARED 0.776, PBLUC_HILL_SLOPE 1.28, PBLUC_R_SQUARED 0.799, read-out: LUCIFERASE INFECTION ASSAY - IC50) was 1.34 µM.

Consider `COc1ccc(-c2nc3ccccc3n2-c2cc(-c3ccccc3)nn2-c2ccccc2)cc1`, for which the 90% effect concentration (IC90) is 8.43 µM. Further, the half-inhibitory concentration (IC50) (FFLUC_HILL_SLOPE 12.7, FFLUC_R_SQUARED 0.403, HEPG2TOX_HILL_SLOPE 1.43, HEPG2TOX_R_SQUARED 0.399, PBLUC_HILL_SLOPE 4.08, PBLUC_R_SQUARED 0.666, read-out: LUCIFERASE INFECTION ASSAY - IC50) stood at 4.92 µM.

With `CCCNC(=O)c1c(NC(=O)c2cccc(F)c2)nc2ccc(C)cn12`, the IC90 was more than 9.31 µM. The IC50 (PBLUC_HILL_SLOPE 9.17, PBLUC_R_SQUARED 0.612, read-out: LUCIFERASE INFECTION ASSAY - IC50) came out at 7.79 µM.

Turning to `Cc1ccc(S(=O)(=O)N2Cc3ccccc3C(C)CC23CCCCC3)cc1` (configuration not stated), the IC90 is more than 8.6 µM. Moreover, where the note is “PBLUC_HILL_SLOPE 1.1, PBLUC_R_SQUARED 0.205, read-out: LUCIFERASE INFECTION ASSAY - IC50”, the IC50 was more than 8.6 µM.

In the case of `Cc1ccc(NC(=O)c2ccc(Cl)c(NC(=O)c3cccs3)c2)cc1`, the 90% effect concentration (IC90) was more than 8.9 µM. Under setting [1], the IC50 was more than 8.9 µM.

For the molecule `CCN(c1ccccc1)S(=O)(=O)c1ccc(Cl)c(NC(=O)C2(c3ccc(Cl)cc3)CCCC2)c1`, the IC90 was more than 10 µM. For the same molecule, the IC50 under setting [1] is more than 10 µM.

Take `COCC(C)NC(=O)c1cccnc1-c1nc2ccccc2s1` (configuration not stated): the IC90 was more than 10.1 µM. Besides, under setting [1], the IC50 is more than 10.1 µM.

In the case of `O=C(Nc1ccccc1)Nc1ccc(C(=O)Nc2cc(C(F)(F)F)ccc2N2CCOCC2)s1`, the IC90 is 5.82 µM. In addition, the IC50 (HEPG2TOX_HILL_SLOPE 11.7, HEPG2TOX_R_SQUARED 0.346, PBLUC_HILL_SLOPE 5.22, 24.2, PBLUC_R_SQUARED 0.290, 0.170, read-out: LUCIFERASE INFECTION ASSAY - IC50) is 4.29 µM.

`CCOc1ccc(S(=O)(=O)Nc2cc(Sc3ccc(C)cc3)c(O)c3ccccc23)cc1`: the IC90 was more than 10 µM. For the same molecule, the IC50 (FFLUC_HILL_SLOPE 11.6, FFLUC_R_SQUARED 0.0239, HEPG2TOX_HILL_SLOPE 1.78, HEPG2TOX_R_SQUARED 0.0588, PBLUC_HILL_SLOPE 15.2, PBLUC_R_SQUARED 0.324, read-out: LUCIFERASE INFECTION ASSAY - IC50) is 9.98 µM.

For `CC(C)Oc1cccc(C(=O)N2C(C)CCCC2C)c1` (configuration not stated), the 90% effect concentration (IC90) was more than 12 µM. For the same molecule, under setting [1], the IC50 is more than 12 µM.

As for `N#C/C(=C\c1cn(Cc2ccccc2)nc1-c1cccnc1)c1ccc([N+](=O)[O-])cc1`, the IC90 was 1.62 µM. The IC50 under setting [1] amounted to 0.786 µM.

On to `Cc1cc(C)c(C2C3=C(Nc4c2c(C)nn4-c2ccccn2)c2ccccc2C3=O)c(C)c1` (configuration not stated), for which the IC90 was more than 10 µM. The IC50 (FFLUC_HILL_SLOPE 11.5, FFLUC_R_SQUARED 0.374, PBLUC_HILL_SLOPE 1.59, PBLUC_R_SQUARED 0.668, read-out: LUCIFERASE INFECTION ASSAY - IC50) was 5.07 µM.

`CS(=O)(=O)c1ccc(-c2cc(C3(CNc4cccc(Cl)c4)CC3)ccn2)cc1`: the IC90 was more than 10 µM. Moreover, under setting [1], the IC50 was more than 10 µM.

Turning to `Cc1ccc(S(=O)(=O)Nc2cccc(C(=O)NN(C)c3ccccc3)c2)cc1F`, the IC90 was more than 10 µM. The IC50 under setting [1] was more than 10 µM.

In the case of `O=C(CSc1nc2cc(S(=O)(=O)Nc3ccccc3Cl)ccc2o1)NCc1ccccc1`, the IC90 was more than 10 µM. Further, the IC50 under setting [1] is more than 10 µM.

Consider `CC(C)[C@H](NS(=O)(=O)c1ccc2c(c1)OCCO2)C(=O)Nc1nc(-c2ccc(F)c(F)c2)cs1`, for which the IC90 was more than 10 µM. The IC50 (FFLUC_HILL_SLOPE 26.7, FFLUC_R_SQUARED 0.287, HEPG2TOX_HILL_SLOPE 3.72, HEPG2TOX_R_SQUARED 0.958, PBLUC_HILL_SLOPE 3.86, PBLUC_R_SQUARED 0.4, read-out: LUCIFERASE INFECTION ASSAY - IC50) was 6.43 µM.

For `Cc1[nH]c(=O)c(C#N)cc1C(=O)CSc1ccc(C(C)(C)C)cc1`, the concentration for an effect of 90% (IC90) was more than 9.69 µM. In addition, the IC50 under setting [1] is more than 9.69 µM.

As for `O=C(c1cn2ccccc2n1)N1CCN(C(c2ccccc2)c2ccccc2)CC1`, the IC90 was more than 10 µM. The IC50 (PBLUC_HILL_SLOPE 4.26, PBLUC_R_SQUARED 0.0991, read-out: LUCIFERASE INFECTION ASSAY - IC50) came out at 6.51 µM.

As to `COc1cc(OC)cc(-c2cn3c(-c4ccc5c(ccn5C)c4)cnc3cn2)c1`, the concentration for an effect of 90% (IC90) turned out to be 0.163 µM. Moreover, the IC50 (HEPG2TOX_HILL_SLOPE 3.11, HEPG2TOX_R_SQUARED 0.612, PBLUC_HILL_SLOPE 2.08, PBLUC_R_SQUARED 0.748, read-out: LUCIFERASE INFECTION ASSAY - IC50) came to 0.0568 µM.

On to `COc1cc2c(cc1NC(=O)C(C)NCC(c1ccccc1)N(C)C)oc1ccccc12` (configuration not stated), for which the 90% effect concentration (IC90) was more than 10 µM. The IC50 under setting [1] is more than 10 µM.

In the case of `O=C(Nc1ccc(C(=O)N(CCO)Cc2cccc(OCc3ccccc3Cl)c2)cc1)C1CC1`, the concentration for an effect of 90% (IC90) was more than 10 µM. Moreover, under “PBLUC_HILL_SLOPE 3.35, PBLUC_R_SQUARED 0.615, read-out: LUCIFERASE INFECTION ASSAY - IC50”, the IC50 is 6.85 µM.

On to `CCc1ccc(CC)c(-c2csc(N/C(C)=C(\C#N)C(N)=O)n2)c1`, for which the IC90 was more than 10 µM. Further, where the note is “HEPG2TOX_HILL_SLOPE 12.4, HEPG2TOX_R_SQUARED 0.749, PBLUC_HILL_SLOPE 4.61, PBLUC_R_SQUARED 0.122, read-out: LUCIFERASE INFECTION ASSAY - IC50”, the IC50 was found to be 8.16 µM.

Take `CCCCOc1ccc(C(=O)Nc2ccc(N(c3ccccc3)C(C)C)cc2)cc1OCC`: the IC90 was more than 10 µM. Further, the IC50 under setting [1] is more than 10 µM.

Consider `CCCCn1nc(C(=O)Nc2cc(S(=O)(=O)N(CC)CC)ccc2N2CCOCC2)c2ccccc2c1=O`, for which the 90% effect concentration (IC90) was more than 10 µM. The IC50 under setting [1] is more than 10 µM.

Turning to `C(=C(c1nc2ccccc2s1)c1nc2ccccc2s1)c1ccncc1`, the IC90 amounted to 6.3 µM. The IC50 (HEPG2TOX_HILL_SLOPE 11.7, HEPG2TOX_R_SQUARED 0.737, PBLUC_HILL_SLOPE 3.59, 2.80, PBLUC_R_SQUARED 0.729, 0.898, read-out: LUCIFERASE INFECTION ASSAY - IC50) stood at 3.12 µM.

`Cc1ccccc1-c1cn2c(-c3ccc4ncccc4c3)cnc2cn1`: the IC90 amounted to 0.015 µM. Also, where the note is “HEPG2TOX_HILL_SLOPE 0.237, HEPG2TOX_R_SQUARED 0.401, PBLUC_HILL_SLOPE 15.7, PBLUC_R_SQUARED 0.693, read-out: LUCIFERASE INFECTION ASSAY - IC50”, the IC50 worked out at 0.0131 µM.

Take `Cc1cc(-c2cccc3[nH]c(C(F)(F)F)nc23)nn1C(=O)c1ccc([N+](=O)[O-])cc1`: the IC90 was more than 10 µM. In addition, where the note is “FFLUC_HILL_SLOPE 35.5, FFLUC_R_SQUARED 0.403, HEPG2TOX_HILL_SLOPE 0.192, HEPG2TOX_R_SQUARED 0.301, PBLUC_HILL_SLOPE 13.6, PBLUC_R_SQUARED 0.349, read-out: LUCIFERASE INFECTION ASSAY - IC50”, the 50% inhibitory concentration (IC50) is 9.27 µM.

`Cc1ccc(S(=O)(=O)CCN2C(=O)CSC2=O)cc1`: the IC90 was more than 11 µM. Besides, the IC50 under setting [1] is more than 11 µM.

For the molecule `C(=C(c1nc2ccccc2s1)c1nc2ccccc2s1)c1ccccn1`, the IC90 is more than 10 µM. Besides, the IC50 under setting [1] was more than 10 µM.
